Measurements from ChEMBL document CHEMBL1201862, “PubChem BioAssay data set” (2004).
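Growth conditions: 96-well plates. Treatment: test compound, 48 hours, 5 concentrations. Analysis: linear interpolation between bracketing concentrations; unreached endpoints set to highest concentration. GI50 is the concentration that inhibits growth by half.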 Active and inactive are the calls of the source. Rule as the data show it: active = GI50 up to about 1.1 µM and inactive = higher.

What was measured:
Assay in all cases: NCI-60 cell line screen, 48 h
SW-620 = test system: SW-620
EKVX = test system: EKVX
SN12C = test system: SN12C
SF-268 = test system: SF-268
IGROV-1 = test system: IGROV-1
HCT-116 = test system: HCT-116
BT-549 = test system: BT-549
OVCAR-4 = test system: OVCAR-4
786-0 = test system: 786-0
HCC 2998 = test system: HCC 2998
OVCAR-5 = test system: OVCAR-5
M14 = test system: M14
Malme-3M = test system: Malme-3M
U-251 = test system: U-251
HOP-62 = test system: HOP-62
SK-MEL-5 = test system: SK-MEL-5
HOP-92 = test system: HOP-92
NCI-H522 = test system: NCI-H522
Hs-578T = test system: Hs-578T

Measured: GI50

CCO[C@@]1(COCc2ccccc2)OC(=O)C[C@@H]1N1C(=O)OC[C@@H]1c1ccccc1
inactive: SW-620 > 100 µM | EKVX > 100 µM | SN12C > 100 µM | SF-268 > 100 µM | IGROV-1 > 100 µM | HCT-116 > 100 µM | BT-549 > 100 µM | OVCAR-4 > 100 µM | 786-0 > 100 µM | HCC 2998 > 100 µM | OVCAR-5 > 100 µM | M14 > 100 µM | Malme-3M > 100 µM | U-251 > 100 µM | HOP-62 26.6 µM | SK-MEL-5 > 100 µM | HOP-92 > 100 µM | NCI-H522 84.3 µM

COc1ccc(/C=C2\CSC/C(=C\c3ccc(OC)c(OC)c3OC)C2=O)c(OC)c1OC
inactive: SW-620 20.6 µM | EKVX > 100 µM | SN12C 24.2 µM | SF-268 41.6 µM | IGROV-1 37.8 µM | HCT-116 17 µM | BT-549 35.5 µM | 786-0 22.3 µM | HCC 2998 > 10 µM | OVCAR-5 > 100 µM | M14 18.5 µM | Malme-3M 5.86 µM | U-251 39.8 µM | HOP-62 60.8 µM | SK-MEL-5 28.3 µM | HOP-92 35.6 µM

CC1C(=O)N=C2C(=CN(Cc3ccccc3)c3ccccc32)C(=O)N1C (stereo not drawn)
inactive: SW-620 > 100 µM | SN12C > 100 µM | SF-268 > 100 µM | IGROV-1 > 100 µM | HCT-116 > 100 µM | BT-549 > 100 µM | OVCAR-4 > 100 µM | 786-0 > 100 µM | HCC 2998 > 100 µM | OVCAR-5 > 100 µM | M14 > 100 µM | Malme-3M > 100 µM | U-251 > 100 µM | SK-MEL-5 > 100 µM | HOP-92 > 100 µM | NCI-H522 29.1 µM

Cc1c(C(=O)O)sc2nc[nH]c(=O)c12
inactive: SW-620 > 100 µM | EKVX 53.8 µM | SN12C > 100 µM | SF-268 > 100 µM | IGROV-1 84.1 µM | HCT-116 > 100 µM | Hs-578T 22.6 µM | OVCAR-4 > 100 µM | 786-0 > 100 µM | HCC 2998 > 100 µM | OVCAR-5 > 100 µM | M14 > 100 µM | Malme-3M > 100 µM | U-251 > 100 µM | HOP-62 > 100 µM | SK-MEL-5 > 100 µM | HOP-92 67.1 µM | NCI-H522 > 100 µM

COc1ccc(-c2nc(SCC(=O)N/N=C/c3ccc(N(C)C)cc3)[nH]c2-c2ccc(OC)cc2)cc1
inactive: SW-620 48 µM | EKVX 90.4 µM | SN12C 82 µM | SF-268 > 100 µM | IGROV-1 > 100 µM | HCT-116 37.9 µM | BT-549 > 100 µM | OVCAR-4 > 100 µM | 786-0 57.7 µM | HCC 2998 75.9 µM | OVCAR-5 99.5 µM | M14 35.2 µM | Malme-3M > 100 µM | U-251 36.9 µM | HOP-62 > 100 µM | SK-MEL-5 26.8 µM | HOP-92 > 100 µM | NCI-H522 31.3 µM

COC(=O)NCCc1n[nH]c2c1C(=O)C=C(OC)C2=O
inactive: SW-620 22.6 µM | EKVX 22.9 µM | SN12C 20.3 µM | SF-268 18.5 µM | IGROV-1 19.9 µM | HCT-116 18.6 µM | Hs-578T 34.3 µM | OVCAR-4 19.6 µM | 786-0 19.5 µM | HCC 2998 > 100 µM | OVCAR-5 20.7 µM | M14 19.7 µM | Malme-3M 15.5 µM | U-251 16.7 µM | HOP-62 20.9 µM | SK-MEL-5 15.5 µM | HOP-92 21.5 µM | NCI-H522 23.9 µM

O=C(CCCCCCCCC(=O)NN1C(=O)/C(=C\c2ccc(O)c(O)c2)SC1c1ccc(Cl)cc1)NN1C(=O)/C(=C\c2ccc(O)c(O)c2)SC1c1ccc(Cl)cc1 (stereo not drawn)
inactive: SW-620 56.5 µM | EKVX 50.8 µM | SN12C 41.7 µM | SF-268 8.67 µM | IGROV-1 2.83 µM | HCT-116 24.6 µM | BT-549 > 47.3 µM | OVCAR-4 31.9 µM | 786-0 7.55 µM | HCC 2998 34.2 µM | OVCAR-5 > 86.3 µM | M14 20.7 µM | Malme-3M 23.7 µM | U-251 15.7 µM | HOP-62 10.3 µM | SK-MEL-5 30.6 µM | HOP-92 11.5 µM | NCI-H522 2.87 µM

CC(C)(C)C(=O)C(Cc1ccccc1)C(=O)C(C)(C)C
inactive: SW-620 > 100 µM | EKVX > 100 µM | SN12C > 100 µM | SF-268 > 100 µM | IGROV-1 > 100 µM | HCT-116 52.6 µM | Hs-578T > 100 µM | OVCAR-4 66.1 µM | 786-0 > 100 µM | HCC 2998 > 100 µM | OVCAR-5 > 100 µM | M14 > 100 µM | Malme-3M > 100 µM | U-251 > 100 µM | HOP-62 > 100 µM | SK-MEL-5 > 100 µM | HOP-92 29.6 µM | NCI-H522 98.4 µM

OC(CC(O)(C(F)(F)F)C(F)(F)F)c1ccc(C(O)CC(O)(C(F)(F)F)C(F)(F)F)cc1 (stereo not drawn)
inactive: SW-620 19.2 µM | EKVX 14.7 µM | SF-268 14.9 µM | IGROV-1 10.9 µM | HCT-116 11.8 µM | Hs-578T 22 µM | OVCAR-4 15.7 µM | 786-0 20.4 µM | HCC 2998 17.2 µM | OVCAR-5 17.1 µM | M14 15.9 µM | Malme-3M 14.2 µM | U-251 16.4 µM | HOP-62 17 µM | SK-MEL-5 13.9 µM | HOP-92 13 µM | NCI-H522 18.3 µM

CCOC(=O)C(=CNC(=S)Nc1c(CC)cccc1CC)C(=O)OCC
inactive: SW-620 > 100 µM | EKVX > 100 µM | SN12C > 100 µM | SF-268 > 100 µM | IGROV-1 > 100 µM | HCT-116 > 100 µM | Hs-578T 80.7 µM | OVCAR-4 > 100 µM | 786-0 > 100 µM | HCC 2998 > 100 µM | OVCAR-5 > 100 µM | M14 > 100 µM | Malme-3M > 100 µM | U-251 > 100 µM | HOP-62 > 100 µM | SK-MEL-5 > 100 µM | HOP-92 94.4 µM | NCI-H522 > 100 µM

CCN(CC)CC1CCCCN1CC(=O)N1c2ccccc2NC(=O)c2ccccc21 (stereo not drawn)
inactive: SW-620 > 100 µM | EKVX > 100 µM | SN12C > 100 µM | SF-268 > 100 µM | IGROV-1 > 100 µM | HCT-116 > 100 µM | Hs-578T > 100 µM | OVCAR-4 > 100 µM | 786-0 > 100 µM | HCC 2998 > 100 µM | OVCAR-5 > 100 µM | M14 > 100 µM | Malme-3M > 100 µM | U-251 > 100 µM | HOP-62 > 100 µM | SK-MEL-5 > 100 µM | HOP-92 > 100 µM | NCI-H522 > 100 µM
